Laboratory results as given in ChEMBL document CHEMBL1275506, “Expanded-spectrum beta-lactamase PER-1 in an environmental Aeromonas media isolate from Switzerland” (2008).
≈ marks a conversion by molar mass, not a printed value.

Legend:
Format in all cases: functional
[1] = system: Escherichia coli; experiment: Antibacterial activity against Escherichia coli J53 by Etest
[2] = system: Escherichia coli; experiment: Antibacterial activity against Escherichia coli J53 harboring plasmid pAM carrying beta-lactamase PER-1 by Etest
[3] = system: Escherichia coli; experiment: Antibacterial activity against Escherichia coli J53 by Etest in presence of clavulanic acid
[4] = system: Escherichia coli; experiment: Antibacterial activity against Escherichia coli J53 harboring plasmid pAM carrying beta-lactamase PER-1 by Etest in presence of clavulanic acid
[5] = system: Aeromonas sp.; experiment: Antibacterial activity against Aeromonas sp. isolate A72 by Etest
[6] = system: Aeromonas sp.; experiment: Antibacterial activity against Aeromonas sp. isolate A72 by Etest in presence of clavulanic acid

SMILES	MIC [1] [µg/mL]	MIC [2] [µg/mL]	MIC [3] [µg/mL]	MIC [4] [µg/mL]	MIC [5] [µg/mL]	MIC [6] [µg/mL]
CC1(C)S[C@@H]2[C@H](NC(=O)[C@H](C(=O)O)c3ccsc3)C(=O)N2[C@H]1C(=O)O [TICARCILLIN]	4 (≈ 10.4 µM)	> 256	4	8	> 256	128
CO/N=C(\C(=O)N[C@@H]1C(=O)N2C(C(=O)[O-])=C(C[N+]3(C)CCCC3)CS[C@H]12)c1csc(N)n1 [CEFEPIME]	–	8 (≈ 16.6 µM)	–	–	4 (≈ 8.32 µM)	–
CC1(C)S[C@@H]2[C@H](NC(=O)[C@H](N)c3ccc(O)cc3)C(=O)N2[C@H]1C(=O)O [AMOXICILLIN]	4 (≈ 10.9 µM)	> 256	4	4	> 256	8
CC(=O)OCC1=C(C(=O)O)N2C(=O)[C@@H](NC(=O)Cc3cccs3)[C@H]2SC1 [CEPHALOTHIN]	8 (≈ 20.2 µM)	> 64	–	–	> 64	–
CC(C)(O/N=C(\C(=O)N[C@@H]1C(=O)N2C(C(=O)[O-])=C(C[n+]3ccccc3)CS[C@H]12)c1csc(N)n1)C(=O)O [CEFTAZIDIME]	0.06 (≈ 0.11 µM)	> 256	–	–	> 256	–
CO[C@@]1(NC(=O)Cc2cccs2)C(=O)N2C(C(=O)O)=C(COC(N)=O)CS[C@@H]21 [CEFOXITIN]	2 (≈ 4.68 µM)	2 (≈ 4.68 µM)	–	–	2 (≈ 4.68 µM)	–
CO/N=C(\C(=O)N[C@@H]1C(=O)N2C(C(=O)O)=C(COC(C)=O)CS[C@H]12)c1csc(N)n1 [CEFOTAXIME]	0.06 (≈ 0.132 µM)	> 32	–	–	> 32	–
C[C@@H](O)[C@H]1C(=O)N2C(C(=O)O)=C(SCCNC=N)C[C@H]12 [IMIPENEM ANHYDROUS]	–	0.25 (≈ 0.835 µM)	–	–	0.25 (≈ 0.835 µM)	–
